Converted amounts (≈) assume the structure as drawn.
What was measured:
Test in all cases: ≥ marks a high value that may be exact or a test limit, other limits are often not marked, values filed in µg/mL are converted to µM
[1] = test system: Salmonella enterica
[2] = test system: Escherichia coli JM109
[3] = test system: Vibrio parahaemolyticus CCRC 10806
[4] = test system: Lactobacillus delbrueckii subsp. bulgaricus
[5] = test system: Pseudomonas aeruginosa
[6] = test system: Bifidobacterium adolescentis
[7] = test system: Citrobacter koseri
[8] = test system: Staphylococcus aureus CCRC 15211
[9] = test system: Enterococcus faecium
[10] = test system: Staphylococcus aureus CCRC 12652
[11] = test system: Staphylococcus xylosus
[12] = test system: Salmonella typhimurium CCRC 12947
[13] = test system: Escherichia coli BL21
[14] = test system: Klebsiella pneumoniae CCRC 10694
[15] = test system: Pseudomonas aeruginosa K799
[16] = test system: Escherichia coli UB1005
[17] = test system: Staphylococcus aureus C623
[18] = test system: Escherichia coli CGSC 4908
[19] = test system: Salmonella enterica subsp. enterica serovar Typhimurium ATCC 14028s
[20] = test system: Escherichia coli DC2
[21] = test system: Salmonella enterica serovar typhimurium MS7953s
[22] = test system: Aeromonas salmonicida 99-1
[23] = test system: Pseudomonas aeruginosa Z61
[24] = test system: Candida albicans C627
[25] = test system: Staphylococcus epidermidis C621
[26] = test system: Aeromonas salmonicida 97-4
[27] = test system: Salmonella enterica subsp. enterica serovar Enteritidis MH91989
[28] = test system: Escherichia coli JW0013
[29] = test system: Escherichia coli O157:H7
[30] = test system: Escherichia coli J2210
[31] = test system: Escherichia coli JJ2487
[32] = test system: Salmonella typhimurium SL1344
[33] = test system: Escherichia coli MC1061
[34] = test system: Salmonella enterica subsp. enterica serovar Typhimurium ATCC 14028
[35] = test system: Staphylococcus aureus ATCC 29213
[36] = test system: Salmonella enterica subsp. enterica serovar Typhimurium C77-31
[37] = test system: Escherichia coli 078
[38] = test system: Candida parapsilosis CGMCC 2.3989
[39] = test system: Candida albicans CGMCC 2.2086
[40] = test system: Staphylococcus aureus ATCC 25923
[41] = test system: Staphylococcus epidermidis ATCC 12228
[42] = test system: Escherichia coli ATCC 25922
[43] = test system: Pseudomonas aeruginosa ATCC 27853
[44] = test system: Escherichia coli K88
[45] = test system: Staphylococcus aureus ATCC 43300
[46] = test system: Candida tropicalis CGMCC 2.1975
[47] = test system: Escherichia coli K99

| Structure (SMILES) | MIC [1] [µM] | MIC [2] [µM] | MIC [4] [µM] | MIC [5] [µM] | MIC [6] [µM] | MIC [7] [µM] | MIC [8] [µM] | MIC [9] [µM] | MIC [10] [µM] | MIC [11] [µM] | MIC [12] [µM] | MIC [13] [µM] | MIC [14] [µM] | MIC [15] [µM] | MIC [16] [µM] | MIC [17] [µM] | MIC [18] [µM] | MIC [19] [µM] | MIC [20] [µM] | MIC [3] [µM] | other results |
| --- | --- | --- | --- | --- | --- | --- | --- | --- | --- | --- | --- | --- | --- | --- | --- | --- | --- | --- | --- | --- | --- |
| CC(=O)[C@H](CC(C)C)NC(=O)[C@H](Cc1ccc(O)cc1)NC(=O)[C@H](Cc1cnc[nH]1)NC(=O)[C@H](CC(=O)O)NC(=O)[C@H](CC(C)C)NC(=O)[C@H](C)NC(=O)[C@H](CC(C)C)NC(=O)CNC(=O)CNC(=O)[C@@H](NC(=O)[C@@H](NC(=O)[C@H](CCCCN)NC(=O)CNC(=O)[C@@H](NC(=O)[C@H](CCCCN)NC(=O)[C@H](CCCCN)NC(=O)[C@H](C)NC(=O)[C@H](CCCCN)NC(=O)[C@H](CCCNC(=N)N)NC(=O)[C@H](Cc1ccccc1)NC(=O)[C@@H](NC(=O)[C@H](CO)NC(=O)[C@H](CCCCN)NC(=O)[C@H](Cc1c[nH]c2ccccc12)NC(=O)CN)C(C)C)C(C)C)[C@@H](C)O)C(C)C [GWKSVFRKAKKVGKTVGGLALDHYL] |  |  |  |  |  |  |  |  |  |  |  |  |  | 11.6 (≈ 32 µg/mL) | 5.8 (≈ 16 µg/mL) | 23.2 (≈ 64 µg/mL) | 1.45 (≈ 4 µg/mL) | 11.6 (≈ 32 µg/mL) | 1.45 (≈ 4 µg/mL) |  | MIC [21]: 1.45 µM (≈ 4 µg/mL); MIC [22]: 2.9 µM (≈ 7.99 µg/mL); MIC [23]: 1.45 µM (≈ 4 µg/mL); MIC [24]: 11.6 µM (≈ 32 µg/mL); MIC [25]: 23.2 µM (≈ 64 µg/mL); MIC [26]: 2.9 µM (≈ 7.99 µg/mL) |
| CC[C@H](C)[C@H](NC(=O)[C@H](CCCN=C(N)N)NC(=O)[C@H](CCCN=C(N)N)NC(=O)[C@@H]1CCCN1C(=O)[C@@H]1CCCN1C(=O)[C@H](CCCN=C(N)N)NC(=O)[C@@H]1CCCN1C(=O)[C@H](CCCN=C(N)N)NC(=O)[C@@H]1CCCN1C(=O)[C@H](CCCN=C(N)N)NC(=O)[C@H](Cc1ccc(O)cc1)NC(=O)[C@@H]1CCCN1C(=O)[C@H](CCCN=C(N)N)NC(=O)[C@H](CCCCN)NC(=O)[C@H](CC(=O)O)NC(=O)[C@@H](N)C(C)C)C(=O)N[C@@H](Cc1ccc(O)cc1)C(=O)N[C@@H](CC(N)=O)C(=O)N[C@@H](CCCN=C(N)N)C(N)=O [VDKRPYRPRPRPPRRIYNR] |  |  |  |  |  |  |  |  |  |  |  |  |  |  |  |  |  |  |  |  | MIC [27]: 0.169 µM (≈ 0.42 µg/mL); MIC [28]: 0.156 µM (≈ 0.39 µg/mL); MIC [29]: 0.666 µM (≈ 1.66 µg/mL); MIC [30]: 0.12 µM (≈ 0.3 µg/mL); MIC [31]: 0.169 µM (≈ 0.42 µg/mL); MIC [32]: 0.156 µM (≈ 0.39 µg/mL); MIC [33]: 0.0602 µM (≈ 0.15 µg/mL) |
| CC[C@H](C)[C@H](NC(=O)[C@H](CCCCN)NC(=O)[C@H](C)NC(=O)[C@H](C)N)C(=O)N[C@H](C(=O)N[C@@H](CC(C)C)C(=O)N[C@@H](CC(N)=O)C(=O)N1CCC[C@H]1C(=O)N[C@@H](CCCCN)C(=O)N[C@@H](Cc1ccccc1)C(=O)N[C@@H](CCCN=C(N)N)C(N)=O)[C@@H](C)CC [AAKIILNPKFR] |  |  |  |  |  |  |  |  |  |  |  |  |  |  | ≥ 128 |  |  |  |  |  | MIC [34]: > 128 µM; MIC [35]: > 128 µM; MIC [36]: ≥ 128 µM; MIC [37]: ≥ 128 µM; MIC [38]: ≥ 128 µM; MIC [39]: ≥ 128 µM; MIC [40]: > 128 µM; MIC [41]: > 128 µM; MIC [42]: > 128 µM; MIC [43]: > 128 µM; MIC [44]: ≥ 128 µM; MIC [45]: > 128 µM; MIC [46]: ≥ 128 µM; MIC [47]: ≥ 128 µM |
| CC[C@H](C)[C@H](NC(=O)[C@H](CCCCN)NC(=O)CNC(=O)[C@@H](NC(=O)[C@H](Cc1cnc[nH]1)NC(=O)[C@H](Cc1cnc[nH]1)NC(=O)[C@@H](NC(=O)CNC(=O)[C@H](Cc1cnc[nH]1)NC(=O)[C@H](Cc1ccccc1)NC(=O)[C@H](CC(C)C)NC(=O)[C@H](CC(C)C)NC(=O)[C@H](CCCNC(=N)N)NC(=O)[C@H](Cc1ccccc1)NC(=O)[C@@H](N)Cc1ccccc1)C(C)C)C(C)C)C(=O)N[C@@H](CCCCN)C(=O)N1CCC[C@H]1C(=O)N[C@@H](CCCNC(=N)N)C(=O)N[C@@H](C)C(C)=O [FFRLLFHGVHHVGKIKPRA] |  |  |  |  |  |  |  |  |  |  |  |  |  | 14.2 (≈ 32 µg/mL) | 14.2 (≈ 32 µg/mL) | 28.3 (≈ 63.9 µg/mL) | 14.2 (≈ 32 µg/mL) | 28.3 (≈ 63.9 µg/mL) | 14.2 (≈ 32 µg/mL) |  | MIC [21]: 7.08 µM (≈ 16 µg/mL); MIC [22]: 28.3 µM (≈ 63.9 µg/mL); MIC [23]: 3.54 µM (≈ 7.99 µg/mL); MIC [24]: 28.3 µM (≈ 63.9 µg/mL); MIC [25]: 14.2 µM (≈ 32 µg/mL); MIC [26]: 14.2 µM (≈ 32 µg/mL) |

The next lines start with results.

| MIC [1] [µM] | MIC [2] [µM] | MIC [4] [µM] | MIC [5] [µM] | MIC [6] [µM] | MIC [7] [µM] | MIC [8] [µM] | MIC [9] [µM] | MIC [10] [µM] | MIC [11] [µM] | MIC [12] [µM] | MIC [13] [µM] | MIC [14] [µM] | MIC [15] [µM] | MIC [16] [µM] | MIC [17] [µM] | MIC [18] [µM] | MIC [19] [µM] | MIC [20] [µM] | Structure (SMILES) | MIC [3] [µM] | other results |
| --- | --- | --- | --- | --- | --- | --- | --- | --- | --- | --- | --- | --- | --- | --- | --- | --- | --- | --- | --- | --- | --- |
| 19.5 (≈ 32 µg/mL) | 1.22 (≈ 2 µg/mL) | ≥ 78 | 39 (≈ 64 µg/mL) | ≥ 78 | 2.44 (≈ 4 µg/mL) | 19.5 (≈ 32 µg/mL) | ≥ 78 | 13.8 (≈ 22.6 µg/mL) | 0.61 (≈ 0.999 µg/mL) | 19.5 (≈ 32 µg/mL) | 4.88 (≈ 8 µg/mL) | ≥ 39 |  |  |  |  |  |  | CC[C@H](C)[C@H](NC(=O)[C@H](CC(N)=O)NC(=O)[C@H](CCCCN)NC(=O)[C@H](CC(C)C)NC(=O)[C@H](CCCCN)NC(=O)[C@@H](N)CC(C)C)C(=O)N[C@H](C(=O)N[C@@H](CO)C(=O)N[C@@H](Cc1c[nH]c2ccccc12)C(=O)N[C@@H](C)C(=O)N[C@@H](CCCCN)C(=O)N[C@@H](CCCCN)C(=O)N[C@H](C(=O)N[C@@H](CC(C)C)C(N)=O)C(C)C)C(C)C [LKLKNIVSWAKKVL] | 9.76 (≈ 16 µg/mL) |  |
| ≥ 80.5 | 1.26 (≈ 2 µg/mL) | ≥ 80.5 | 80.5 (≈ 128 µg/mL) | ≥ 80.5 | 5.03 (≈ 8 µg/mL) | ≥ 80.5 | ≥ 80.5 | ≥ 80.5 | 0.629 (≈ 0.999 µg/mL) | ≥ 80.5 | 10.1 (≈ 16 µg/mL) | ≥ 80.5 |  |  |  |  |  |  | CC[C@H](C)[C@H](NC(=O)[C@H](CO)NC(=O)[C@H](CCCCN)NC(=O)[C@H](CC(C)C)NC(=O)[C@H](CCCCN)NC(=O)[C@@H](N)CC(C)C)C(=O)N[C@H](C(=O)N[C@@H](CO)C(=O)N[C@@H](Cc1ccc(O)cc1)C(=O)N[C@@H](C)C(=O)N[C@@H](CCCCN)C(=O)N[C@@H](CCCCN)C(=O)N[C@H](C(=O)N[C@@H](CC(C)C)C(N)=O)C(C)C)C(C)C [LKLKSIVSYAKKVL] | ≥ 40.3 |  |

Reference: DBAASP
